Measurements taken from patent US20160200847A1, “CLICKABLE POLYMERS AND GELS FOR MICROARRAY AND OTHER APPLICATIONS” (priority 2014, published 2016).

Target: T1, Concanavalin A (ConA) (Canavalia ensiformis, UniProt P02866)
T1 construct: purchased Sigma Aldrich
Assay: Glycan microarray incubated with biotinylated ConA, Cy3-streptavidin fluorescence detection
Type: binding
Settings: spotted at 50 μM; 100 ng/ml (0.943 nM) biotinylated ConA; Cy3-labelled streptavidin
Description: Four hundreds pL of each glycan was spotted at 10 μM or 50 μM concentration from an aqueous solution of […] (2.5 mM) and ascorbic acid (12.5 mM). A α-mannoside (10) and β-galactoside (11) were used as positive and negative controls. The immobilization reaction took place during an overnight incubation in a humid chamber at room temperature. The printed slides were sequentially washed with PBS buffer for 10 minutes with DI water and dried by a nitrogen stream. The arrayed slides were then incubated with biotinylated α-mannose-binding lectin Concanavalin A (ConA) in the lectin binding buffer (LBB, 50 mM HEPES, pH 7.4, 5 mM MnCl2, 5 mM CaCl2) in the presence of BSA (0.2 mg/ml). […] A final incubation of 1 h with 2 μg/ml Cyanine3 labelled Streptavidin in PBS (Phosphate Saline Buffer) in a humid chamber at room temperature under static condition enabled the fluorescence detection of the surface bound ConA by means of a scanner (ProScanArray scanner from Perkin Elmer, Boston, Mass., USA) used at 70% of laser power and 60% of photomultiplier (PMT) gain (FIG. 2b). The fluorescence intensities of 11 spot replicates were confirmed by three experiments that provided the same fluorescence intensities for each glycomimetic, with a standard deviation lower than 5%. […]
The graph (b) of FIG. 2 reports the fluorescence intensity observed for different glycan spots. […]

OC[C@H]1O[C@@H](O)[C@H](O)[C@@H](O)[C@H]1O [Glycomimetic 11, β-galactose]
interaction with ConA (spot fluorescence intensity, qualitative): lack of fluorescence
